Where “and” joins values, the source holds several entries; their conditions need not be identical. Equal values may be shown once. Inconclusive results and toxic doses are left out.

The test system of the assay is L1210 leukemia ip in BDF1 mice, survival T/C. As to the kind of experiment: NCI In Vivo Anticancer Drug Screen. Data for tumor model L1210 Leukemia (intraperitoneal) in B6D2F1 (BDF1) mice. Conditions: endpoint: mean survival time, higher = longer survival. In short, it runs like this: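 Ratio derived from survival: compound-dosed mice over vehicle-dosed mice, all bearing a transplantable tumor.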

Where [1] appears, read: dose: 100.0 mg/kg/injection, schedule: Q01DX001 (ip), vehicle: carboxymethylcellulose (CMC).
[2] abbreviates: dose: 200.0 mg/kg/injection, schedule: Q01DX001 (ip), vehicle: carboxymethylcellulose (CMC).
[3] abbreviates: dose: 400.0 mg/kg/injection, schedule: Q01DX001 (ip), vehicle: carboxymethylcellulose (CMC).
The mark [4] stands for this setting: dose: 100.0 mg/kg/injection, schedule: Q04DX003 (ip), vehicle: Klucel (hydroxypropylcellulose) (HPC).
[5] abbreviates: dose: 200.0 mg/kg/injection, schedule: Q04DX003 (ip), vehicle: Klucel (hydroxypropylcellulose) (HPC).
The mark [6] stands for this setting: dose: 100.0 mg/kg/injection, schedule: Q04DX002 (ip), vehicle: Klucel (hydroxypropylcellulose) (HPC).
The mark [7] stands for this setting: dose: 100.0 mg/kg/injection, schedule: Q01DX001 (ip), vehicle: Klucel (hydroxypropylcellulose) (HPC).
Setting [8] is: dose: 200.0 mg/kg/injection, schedule: Q01DX001 (ip), vehicle: Klucel (hydroxypropylcellulose) (HPC).

For the molecule `CC1(C)CC(N=Cc2ccccc2O)CC(C)(C)N1O.CC1(C)CC(N=Cc2ccccc2O)CC(C)(C)N1O.[Cu]`, the T/C by setting is: (dose: 12.5 mg/kg/injection, schedule: Q04DX003 (ip), vehicle: saline) 89 % of control; (dose: 25.0 mg/kg/injection, schedule: Q04DX003 (ip), vehicle: saline) 101 % of control; (dose: 50.0 mg/kg/injection, schedule: Q04DX003 (ip), vehicle: saline) 101 % of control.

In the case of `COc1ccc(-c2cc(=O)c3c(O)c(OC)c(O)cc3o2)cc1`, the T/C (dose: 20.0 mg/kg/injection, schedule: Q01DX Z (ip), vehicle: saline) is 101 % of control; the T/C (dose: 40.0 mg/kg/injection, schedule: Q01DX Z (ip), vehicle: saline) was 108 % of control; the T/C (dose: 80.0 mg/kg/injection, schedule: Q01DX Z (ip), vehicle: saline) is 95 % of control.

As to `COc1ccc(Cl)cc1Cl`, the T/C was 90 % of control (dose: 75.0 mg/kg/injection, schedule: Q01DX009 (ip), vehicle: saline); 100 % of control (dose: 75.0 mg/kg/injection, schedule: Q04DX003 (ip), vehicle: saline); 86 % of control (dose: 150.0 mg/kg/injection, schedule: Q01DX009 (ip), vehicle: saline); 95 % of control (dose: 150.0 mg/kg/injection, schedule: Q04DX003 (ip), vehicle: saline); 92 % of control (dose: 300.0 mg/kg/injection, schedule: Q01DX009 (ip), vehicle: saline); 90 % of control (dose: 300.0 mg/kg/injection, schedule: Q04DX003 (ip), vehicle: saline).

For the molecule `CSC(=N)c1cccc(OCCOc2ccccc2)c1`, the T/C by setting is: (dose: 50.0 mg/kg/injection, schedule: Q01DX009 (ip), vehicle: Klucel (hydroxypropylcellulose) (HPC)) 96 % of control; (dose: 100.0 mg/kg/injection, schedule: Q01DX009 (ip), vehicle: Klucel (hydroxypropylcellulose) (HPC)) 102 % of control; (dose: 200.0 mg/kg/injection, schedule: Q01DX009 (ip), vehicle: Klucel (hydroxypropylcellulose) (HPC)) 96 % of control.

Regarding `COc1cc(C(=O)O)c(Cc2ccccc2)c(OC)c1O`, the T/C (dose: 5.0 mg/kg/injection, schedule: Q01DX001 (ip), vehicle: saline) is 95 % of control; the T/C (dose: 10.0 mg/kg/injection, schedule: Q01DX001 (ip), vehicle: saline) is 97 % of control; the T/C (dose: 20.0 mg/kg/injection, schedule: Q01DX001 (ip), vehicle: saline) is 95 % of control; the T/C (dose: 40.0 mg/kg/injection, schedule: Q01DX001 (ip), vehicle: saline) is 95 % of control; the T/C (dose: 80.0 mg/kg/injection, schedule: Q01DX001 (ip), vehicle: saline) was 95 % of control.

In the case of `CC/C(C)=N/NCCO`, the T/C (dose: 12.5 mg/kg/injection, schedule: Q01DX001 (ip), vehicle: saline) is 114 % of control; the T/C (dose: 12.5 mg/kg/injection, schedule: Q01DX009 (ip), vehicle: saline) is 93 % of control; the T/C (dose: 25.0 mg/kg/injection, schedule: Q01DX001 (ip), vehicle: saline) is 101 % of control; the T/C (dose: 25.0 mg/kg/injection, schedule: Q01DX009 (ip), vehicle: saline) is 97 % of control; the T/C (dose: 50.0 mg/kg/injection, schedule: Q01DX001 (ip), vehicle: saline) is 103 % of control and 104 % of control.

Consider `CSc1ncnc2c1ncn2C1OC(CO)C2OC(C)(C)OC21` (centres undefined), for which the T/C was 112 % of control (dose: 100.0 mg/kg/injection, schedule: Q01DX005 (ip), vehicle: saline) and 122 % of control (dose: 200.0 mg/kg/injection, schedule: Q01DX005 (ip), vehicle: saline).

For `CC12OC(=O)CC1CC(=O)O2` (centres undefined), the T/C (dose: 100.0 mg/kg/injection, schedule: Q01DX001 (ip), vehicle: saline sonified) was 101 % of control; the T/C (dose: 100.0 mg/kg/injection, schedule: Q01DX009 (ip), vehicle: saline sonified) was 109 % of control; the T/C (dose: 200.0 mg/kg/injection, schedule: Q01DX001 (ip), vehicle: saline sonified) is 95 % of control; the T/C (dose: 200.0 mg/kg/injection, schedule: Q01DX009 (ip), vehicle: saline sonified) was 105 % of control; the T/C (dose: 400.0 mg/kg/injection, schedule: Q01DX001 (ip), vehicle: saline sonified) is 92 % of control; the T/C (dose: 400.0 mg/kg/injection, schedule: Q01DX009 (ip), vehicle: saline sonified) is 102 % of control.

Regarding `Nc1cc(Br)cc2c1-c1ccc(Br)cc1C2`, the T/C (dose: 50.0 mg/kg/injection, schedule: Q01DX001 (ip), vehicle: carboxymethylcellulose (CMC)) was 107 % of control; the T/C under setting [1] was 104 % of control; the T/C under setting [2] is 96 % of control; the T/C under setting [3] was 102 % of control.

On to `Oc1cc(N2CC2)c(O)cc1N1CC1`, for which the T/C by setting is: (dose: 0.3 mg/kg/injection, schedule: Q01DX009 (ip), vehicle: saline) 154 % of control; (dose: 0.5 mg/kg/injection, schedule: Q01DX009 (ip), vehicle: saline) 118 % of control.

As for `Cc1ccc(CSc2ccc([N+](=O)[O-])cc2[N+](=O)[O-])cc1`, the T/C runs as follows: under setting [1], 113 % of control; under setting [2], 98 % of control; under setting [3], 92 % of control.

With `Cc1ccc(S)c(C)c1`, the T/C reads like this: under setting [4], 93 % of control; under setting [5], 95 % of control.

Turning to `Brc1cnc(Br)s1`, the T/C runs as follows: (dose: 44.0 mg/kg/injection, schedule: Q04DX002 (ip), vehicle: Klucel (hydroxypropylcellulose) (HPC)) 97 % of control; (dose: 67.0 mg/kg/injection, schedule: Q04DX002 (ip), vehicle: Klucel (hydroxypropylcellulose) (HPC)) 109 % of control; under setting [6], 116 % of control; (dose: 150.0 mg/kg/injection, schedule: Q04DX002 (ip), vehicle: Klucel (hydroxypropylcellulose) (HPC)) 113 % of control.

Turning to `CC(C)C1C(C(N)=O)C(=O)OC1(C)C` (centres undefined), the T/C is, setting by setting: (dose: 100.0 mg/kg/injection, schedule: Q01DX001 (ip), vehicle: saline) 96 % of control; (dose: 200.0 mg/kg/injection, schedule: Q01DX001 (ip), vehicle: saline) 98 % of control; (dose: 400.0 mg/kg/injection, schedule: Q01DX001 (ip), vehicle: saline) 96 % of control.

In the case of `Cc1cc(C)c(NC(=O)c2c(Br)c(Br)c(Br)c(Br)c2C(=O)O)c(C)c1`, the T/C is, setting by setting: under setting [6], 101 % of control; (dose: 200.0 mg/kg/injection, schedule: Q04DX002 (ip), vehicle: Klucel (hydroxypropylcellulose) (HPC)) 111 % of control; (dose: 400.0 mg/kg/injection, schedule: Q04DX002 (ip), vehicle: Klucel (hydroxypropylcellulose) (HPC)) 87 % of control.

As for `S=C(NNC(=S)Nc1ccc(Cl)cc1)NNc1ccccc1`, the T/C is, setting by setting: (dose: 100.0 mg/kg/injection, schedule: Q04DX003 (ip), vehicle: acetone) 97 % of control; (dose: 200.0 mg/kg/injection, schedule: Q04DX003 (ip), vehicle: acetone) 100 % of control.

Take `OCC1OC(n2nc(Cl)c3ccccc32)C(O)C1O` (centres undefined): the T/C by setting is: (dose: 50.0 mg/kg/injection, schedule: Q01DX005 (ip), vehicle: other) 105 % of control; (dose: 100.0 mg/kg/injection, schedule: Q01DX005 (ip), vehicle: other) 102 % of control; (dose: 200.0 mg/kg/injection, schedule: Q01DX005 (ip), vehicle: other) 102 % of control.

Take `CSCC(NC(C)=O)C(=O)O` (centres undefined): the T/C reads like this: (dose: 50.0 mg/kg/injection, schedule: Q01DX001 (ip), vehicle: Klucel (hydroxypropylcellulose) (HPC)) 100 % of control; under setting [7], 98 % of control; under setting [8], 91 % of control.

With `O=c1ccnc(SCc2ccccc2)[nH]1`, the T/C was 95 % of control (dose: 100.0 mg/kg/injection, schedule: Q01DX Z (ip), vehicle: methylcellulose (MC)) and 97 % of control (dose: 200.0 mg/kg/injection, schedule: Q01DX Z (ip), vehicle: methylcellulose (MC)).

As for `O=C(Nc1scc2c1sc1ccccc12)c1ccccc1`, the T/C by setting is: under setting [7], 93 % of control; under setting [8], 93 % of control; (dose: 400.0 mg/kg/injection, schedule: Q01DX001 (ip), vehicle: Klucel (hydroxypropylcellulose) (HPC)) 107 % of control.

Take `O=[N+]([O-])c1cc([N+](=O)[O-])c(Cl)cc1Cl`: the T/C by setting is: (dose: 3.13 mg/kg/injection, schedule: Q01DX009 (ip), vehicle: Klucel (hydroxypropylcellulose) (HPC)) 101 % of control; (dose: 6.25 mg/kg/injection, schedule: Q01DX009 (ip), vehicle: Klucel (hydroxypropylcellulose) (HPC)) 106 % of control; (dose: 12.5 mg/kg/injection, schedule: Q01DX009 (ip), vehicle: Klucel (hydroxypropylcellulose) (HPC)) 106 % of control; under setting [4], 96 % of control; under setting [5], 89 % of control.

On to `CC(=O)NNc1ccccc1Cl`, for which the T/C is, setting by setting: under setting [4], 96 % of control; under setting [5], 117 % of control.
